In patent US20250084094A1 (Vertex Pharmaceuticals Incorporated, priority 2021, published 2025):

Molecular target: T1, APOL1 (Homo sapiens, UniProt O14791)
T1 sequence (O14791 1-398 S342G/I384M): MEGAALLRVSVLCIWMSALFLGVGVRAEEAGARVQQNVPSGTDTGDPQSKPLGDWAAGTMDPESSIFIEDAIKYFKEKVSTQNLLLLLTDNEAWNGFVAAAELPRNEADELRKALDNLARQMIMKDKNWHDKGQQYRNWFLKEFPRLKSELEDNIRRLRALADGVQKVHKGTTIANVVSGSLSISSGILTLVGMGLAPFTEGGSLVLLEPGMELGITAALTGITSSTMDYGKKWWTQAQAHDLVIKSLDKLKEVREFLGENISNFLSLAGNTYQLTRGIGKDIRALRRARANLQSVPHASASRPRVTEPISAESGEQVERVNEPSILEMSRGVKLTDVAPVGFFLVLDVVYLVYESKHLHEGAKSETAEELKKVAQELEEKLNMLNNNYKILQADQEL
Assay: MultiTox-Fluor Multiplex Cytotoxicity Assay in tet-inducible APOL1 T-REx-HEK293 cells
Type: cell-based
Details: tet-inducible transgenic APOL1 T-REx-HEK293 cell lines, 50 ng/mL tet, 24 hours, ratio of dead to live cells; read-out: IP50 (nM) (i.e., IC50 for cell proliferation)
Method: The MultiTox-Fluor Multiplex Cytotoxicity Assay is a single-reagent-addition, homogeneous, fluorescence assay that measures the number of live and dead cells simultaneously in culture wells. The assay measures cell viability and cytotoxicity by detecting two distinct protease activities. The live-cell protease activity is restricted to intact viable cells and is measured using a fluorogenic, cell-permeant peptide glycyl-phenylalanylamino fluorocoumarin (GF-AFC) substrate. The substrate enters intact cells, where it is cleaved to generate a fluorescent signal proportional to the number of living cells. […] A second, cell-impermeant, fluorogenic peptide substrate (bis-AAF-R110 Substrate) is used to measure dead-cell protease that has been released from cells that have lost membrane integrity. A ratio of dead to live cells is used to normalize data.
Briefly, the tet-inducible transgenic APOL1 T-REx-HEK293 cell lines were incubated with 50 ng/mL tet to induce APOL1 in the presence of 3-(2-(4-fluorophenyl)-1H-indol-3-yl)-N-((3S,4R)-4-hydroxy-2-oxopyrrolidin-3-yl)propenamide at 10.03, 3.24, 1.13, 0.356, 0.129, 0.042, 0.129, 0.0045, 0.0015, 0.0005 μM in duplicate for 24 hours in a humidified 37° C. incubator. The MultiTox reagent was added to each well and placed back in the incubator for an additional 30 minutes. The plate was read on the EnVision plate reader. A ratio of dead to live cells was used to normalize, and data was imported, analyzed, and fit using Genedata Screener (Basel, Switzerland) software. Data was normalized using percent of control, no tet (100% viability), and 50 ng/mL tet treated (0% viability),and fit using Smart Fit. The reagents, methods, and complete protocol for the MultiTox assay are described below.
Human embryonic kidney (HEK293) cell lines containing a tet-inducible expression system (T-REx™; Invitrogen, Carlsbad, CA) and Adeno-associated virus site 1 pAAVS1-Puro-APOL1 G0 or pAAVS1-Puro-APOL1 G1 or pAAVS1-Puro-APOL1 G2 Clones G0 DC2.13, Gi DC3.25, and G2 DC4.44 were grown in a T-225 flask at ˜90% confluency in cell growth media (DMEM, 10% Tet-free FBS, 2 mM L-glutamine, 100 Units/mL penicillin-streptomycin, 5 μg/mL blasticidin S HCl, 1 μg/mL puromycin dihydrochloride). Cells were washed with DPBS and then trypsinized to dissociate from the flask. Media was used to quench the trypsin, cells were then pelleted at 200 g and resuspended in fresh cell assay media (DMEM, 2% Tet-free FBS, 2 mM L-glutamine, 100 Units/mL penicillin-streptomycin). Cells were counted and diluted to 1.17×10^6 cells/mL. 20 μL of cells (23,400/well) were dispensed in every well of a 384-well Poly-D-Lysine coated plate using the Multidrop dispenser. The plates were then incubated at room temperature for one hour.
Tetracycline is needed to induce APOL1 expression. 1 mg/mL tet stock in water was diluted to 250 ng/mL (5×) in cell assay media. 60 μL of cell assay media (no tet control) was dispensed in columns 1 and 24, and 60 μL of 5× tet in 384-PP-round bottom plate was dispensed in columns 2 to 23 with the Multidrop dispenser.
Assay ready plates from the Global Compound Archive were ordered using template 384_APOLICell_DR10n2_50 uM_v3. Compounds were dispensed at 200 nL in DMSO. The final top concentration was 10 μM with a 10 point 3-fold dilution in duplicate in the MultiTox assay.
20 μL was transferred from the 5× tet plate to the ARP and mixed, then 5 μL of 5× tet and the compounds were transferred to the cell plate and mixed using the Bravo. The cell plate was placed in the humidified 37° C. 5% CO2 incubator for 24 hours.
The MultiTox-Fluor Multiplex Cytotoxicity Assay was performed in accordance with the manufacturer's protocol. After cells were incubated with tet and compound for 24 hours, 25 μL of 1x MultiTox reagent was added to each well using the Multidrop dispenser; the plates were placed on a plate shaker (600 rpm) for 2 minutes, then centrifuged briefly and placed back in the 37° C. incubator for 30 minutes. […]

Row | Structure (SMILES) | IC50
1 | C[C@H]1C[C@@]2(C[C@@H](c3cn(C)nn3)N1)OCCc1ccc(C#N)cc12 [Compound 11] | 50 to 500 nM
2 | C[C@H]1C[C@]2(C[C@@H](c3cn(C)nn3)N1)C(=O)Nc1ccccc12 [Compound 31, (2′S,3R,6′S)-2′-methyl-6′-(1-methyltriazol-4-yl)spiro[indoline-3,4′-piperidine]-2-one] | > 500 nM
3 | C[C@H]1C[C@@]2(C[C@@H](c3cn(C)nn3)N1)OCC(O)c1ccc(Cl)cc12 (stereo partly drawn) [Compound 29] | 50 to 500 nM
4 | C[C@H]1C[C@@]2(C[C@@H](c3cn(C)nn3)N1)C(=O)Nc1ccc(C(F)(F)F)cc12 [Compound 37, (2′S,3S,6′S)-2′-methyl-6′-(1-methyltriazol-4-yl)-5-(trifluoromethyl)spiro[indoline-3,4′-piperidine]-2-one] | < 50 nM
5 | C[C@H]1C[C@@]2(C[C@@H](c3cn(C)nn3)N1)OCCc1cc(Br)ccc12 [Compound 9] | < 50 nM
6 | C[C@H]1C[C@@]2(C[C@@H](c3cn(C)nn3)N1)OCCc1cc(O)ccc12 [Compound 7] | 50 to 500 nM
7 | C[C@H]1C[C@@]2(C[C@@H](c3cn(C)nn3)N1)OCCc1ccc(Cl)c(O)c12 [Compound 2] | < 50 nM
8 | COc1cccc2c1[C@]1(C[C@@H](c3cn(C)nn3)N[C@@H](C)C1)OCC2 [Compound 6] | > 500 nM
9 | CC(C)c1ccc2c(c1)CCO[C@@]21C[C@@H](c2cn(C)nn2)N[C@@H](C)C1 [Compound 18] | < 50 nM
10 | C[C@H]1C[C@@]2(C[C@@H](c3cn(C)nn3)N1)C(=O)Nc1ccc(Cl)cc12 [Compound 35, (2′S,3S,6′S)-5-chloro-2′-methyl-6′-(1-methyltriazol-4-yl)spiro[indoline-3,4′-piperidine]-2-one] | < 50 nM
11 | C[C@H]1C[C@@]2(C[C@@H](c3cn(C)nn3)N1)OCCc1ccccc12 [Compound 12] | < 50 nM
12 | COc1ccc2c(c1)CCO[C@@]21C[C@@H](c2cn(C)nn2)N[C@@H](C)C1 [Compound 5] | < 50 nM
13 | C[C@H]1C[C@@]2(C[C@@H](c3cnn(CCS(C)(=O)=O)c3)N1)OCCc1cc(O)c(Cl)cc12 [Compound 3] | > 500 nM
14 | C[C@H]1C[C@@]2(C[C@@H](c3cn(C)nn3)N1)OC[C@H](O)c1cc(C(F)(F)F)ccc12 [Compound 28, (1S,2′S,4R,6′S)-2′-methyl-6′-(1-methyl-1H-1,2,3-triazol-4-yl)-6-(trifluoromethyl)spiro[isochromane-1,4′-piperidin]-4-ol] | < 50 nM
15 | C[C@H]1C[C@@]2(C[C@@H](c3cn(C)nn3)N1)OCC(O)c1ccc(Cl)cc12 (stereo partly drawn) [Compound 30, (1S,2′S,6′S)-7-chloro-2′-methyl-6′-(1-methyl-1H-1,2,3-triazol-4-yl)spiro[isochromane-1,4′-piperidin]-4-ol] | 50 to 500 nM
16 | C[C@H]1C[C@@]2(C[C@@H](c3cn(C)nn3)N1)C(=O)Nc1cc(C(F)(F)F)ccc12 [Compound 38, (2′S,3S,6′S)-2′-methyl-6′-(1-methyltriazol-4-yl)-6-(trifluoromethyl)spiro[indoline-3,4′-piperidine]-2-one] | < 50 nM
17 | C[C@H]1CC2(C[C@@H](c3cn(C)nn3)N1)OC(C(N)=O)c1ccc(Cl)cc12 (stereo partly drawn) [Compound 41, (2′S,6′S)-5-chloro-2′-methyl-6′-(1-methyltriazol-4-yl)spiro[1H-isobenzofuran-3,4′-piperidine]-1-carboxamide] | < 50 nM
18 | COC(=O)c1ccc2c(c1)CCO[C@@]21C[C@@H](c2cn(C)nn2)N[C@@H](C)C1 [Compound 19] | > 500 nM

Row | Structure (SMILES) | IC50
19 | C[C@H]1CC2(C[C@@H](c3cn(C)nn3)N1)OC(C(N)=O)c1cc(Cl)ccc12 (stereo partly drawn) [Compound 39, (2′S,6′S)-6-chloro-2′-methyl-6′-(1-methyltriazol-4-yl)spiro[1H-isobenzofuran-3,4′-piperidine]-1-carboxamide] | < 50 nM
20 | C[C@H]1C[C@@]2(C[C@@H](c3cn(C)nn3)N1)OCCc1cc(C#N)ccc12 [Compound 21] | 50 to 500 nM
21 | Cc1ccc2c(c1)CCO[C@@]21C[C@@H](c2cn(C)nn2)N[C@@H](C)C1 [Compound 16] | < 50 nM
22 | Cc1ccc2c(c1)[C@]1(C[C@@H](c3cn(C)nn3)N[C@@H](C)C1)C(=O)N2 [Compound 34, (2′S,3S,6′S)-2′,5-dimethyl-6′-(1-methyltriazol-4-yl)spiro[indoline-3,4′-piperidine]-2-one] | < 50 nM
23 | CCc1ccc2c(c1)[C@]1(C[C@@H](c3cn(C)nn3)N[C@@H](C)C1)OCC2 [Compound 13, (1S,2′S,6′S)-7-ethyl-2′-methyl-6′-(1-methyl-1H-1,2,3-triazol-4-yl)spiro[isochromane-1,4′-piperidine]] | < 50 nM
24 | C[C@H]1C[C@@]2(C[C@@H](c3cn(C)nn3)N1)OC[C@H](O)c1cc(Cl)ccc12 [Compound 26] | < 50 nM
25 | C[C@H]1C[C@@]2(C[C@@H](c3cn(C)nn3)N1)C(=O)Nc1ccccc12 [Compound 32, (2′S,3S,6′S)-2′-methyl-6′-(1-methyltriazol-4-yl)spiro[indoline-3,4′-piperidine]-2-one] | < 50 nM
26 | C[C@H]1C[C@@]2(C[C@@H](c3cn(C)nn3)N1)OCCc1cc(O)c(Cl)cc12 [Compound 1] | > 500 nM
27 | CCc1ccc2c(c1)CCO[C@@]21C[C@@H](c2cn(C)nn2)N[C@@H](C)C1 [Compound 17] | < 50 nM
28 | C[C@H]1C[C@@]2(C[C@@H](c3cn(C)nn3)N1)OC[C@@H](O)c1cc(Cl)ccc12 [Compound 25] | < 50 nM
29 | C[C@H]1C[C@@]2(C[C@@H](c3cn(C)nn3)N1)OC[C@@H](O)c1cc(C(F)(F)F)ccc12 [Compound 27, (1S,2′S,4S,6′S)-2′-methyl-6′-(1-methyl-1H-1,2,3-triazol-4-yl)-6-(trifluoromethyl)spiro[isochromane-1,4′-piperidin]-4-ol] | < 50 nM
30 | C[C@H]1C[C@@]2(C[C@@H](c3cn(C)nn3)N1)OCCc1cc(C(F)(F)F)ccc12 [Compound 23] | < 50 nM
31 | C[C@H]1C[C@@]2(C[C@@H](c3cn(C)nn3)N1)OCCc1cc(Cl)ccc12 [Compound 15] | < 50 nM
32 | C[C@H]1CC2(C[C@@H](c3cn(C)nn3)N1)OC(C(N)=O)c1ccc(Cl)cc12 (single isomer, unassigned) [Compound 42, (2′S,6′S)-5-chloro-2′-methyl-6′-(1-methyltriazol-4-yl)spiro[1H-isobenzofuran-3,4′-piperidine]-1-carboxamide] | 50 to 500 nM
33 | C[C@H]1C[C@@]2(C[C@@H](c3cn(C)nn3)N1)OCCc1ccc(Cl)cc12 [Compound 10] | < 50 nM
34 | C[C@H]1C[C@@]2(C[C@@H](c3cn(C)nn3)N1)OCCc1cccc(O)c12 [Compound 8] | 50 to 500 nM
35 | C[C@H]1C[C@@]2(C[C@@H](c3cn(C)nn3)N1)OCCc1cc(C(C)(C)O)ccc12 [Compound 20] | 50 to 500 nM
36 | C[C@H]1C[C@@]2(C[C@@H](c3cn(C)nn3)N1)OCCc1cc(OS(=O)(=O)C(F)(F)F)ccc12 [Compound 14] | 50 to 500 nM
